Reference: ChEMBL document CHEMBL4507284, “Data for DCP probe BI-1230” (2021)

Assays:
[1] = test system: Tyrosine-protein kinase ABL1 (Homo sapiens), P00519 [H396P]; settings: Compound concentration 1000.0 nM
[2] = molecular target: NUAK family SNF1-like kinase 1 (Homo sapiens) (UniProt O60285); settings: Compound concentration 1000.0 nM
[3] = molecular target: Aurora kinase B (Homo sapiens) (UniProt Q96GD4); settings: Compound concentration 1000.0 nM
[4] = test system: Serine/threonine-protein kinase B-raf (Homo sapiens), P15056 [V600E]; settings: Compound concentration 1000.0 nM
[5] = molecular target: Calcium/calmodulin-dependent protein kinase type 1G (Homo sapiens) (UniProt Q96NX5); settings: Compound concentration 1000.0 nM
[6] = molecular target: Calcium/calmodulin-dependent protein kinase type II subunit beta (Homo sapiens) (UniProt Q13554); settings: Compound concentration 1000.0 nM
[7] = molecular target: Cyclin-dependent kinase 4 (Homo sapiens) (UniProt P11802); settings: Compound concentration 1000.0 nM
Sequence of Cyclin-dependent kinase 4 (Homo sapiens) (P11802 whole entry): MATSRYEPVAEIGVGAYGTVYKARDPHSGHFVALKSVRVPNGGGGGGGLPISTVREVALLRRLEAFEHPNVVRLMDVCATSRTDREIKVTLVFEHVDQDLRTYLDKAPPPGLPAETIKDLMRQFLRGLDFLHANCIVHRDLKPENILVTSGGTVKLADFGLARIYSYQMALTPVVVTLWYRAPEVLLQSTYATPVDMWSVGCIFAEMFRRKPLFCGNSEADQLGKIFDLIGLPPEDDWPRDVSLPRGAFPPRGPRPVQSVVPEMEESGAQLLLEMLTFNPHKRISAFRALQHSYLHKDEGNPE

[8] = molecular target: Serine/threonine-protein kinase Chk1 (Homo sapiens) (UniProt O14757); settings: Compound concentration 1000.0 nM
Sequence of Serine/threonine-protein kinase Chk1 (Homo sapiens) (O14757 whole entry): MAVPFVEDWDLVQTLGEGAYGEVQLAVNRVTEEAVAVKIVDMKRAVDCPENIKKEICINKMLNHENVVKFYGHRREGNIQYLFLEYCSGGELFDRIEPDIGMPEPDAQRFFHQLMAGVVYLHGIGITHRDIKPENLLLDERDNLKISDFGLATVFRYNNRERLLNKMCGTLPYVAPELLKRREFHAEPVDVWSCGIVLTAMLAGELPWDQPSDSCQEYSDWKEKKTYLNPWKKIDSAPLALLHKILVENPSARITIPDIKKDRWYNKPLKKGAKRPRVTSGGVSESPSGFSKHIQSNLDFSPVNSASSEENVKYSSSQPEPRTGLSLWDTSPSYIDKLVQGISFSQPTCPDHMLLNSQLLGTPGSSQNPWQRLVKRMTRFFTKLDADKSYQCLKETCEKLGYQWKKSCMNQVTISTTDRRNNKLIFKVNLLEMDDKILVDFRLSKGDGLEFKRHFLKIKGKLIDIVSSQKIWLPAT

[9] = molecular target: Dual specificity protein kinase CLK4 (Homo sapiens) (UniProt Q9HAZ1); settings: Compound concentration 1000.0 nM
[10] = molecular target: Casein kinase I isoform alpha (Homo sapiens) (UniProt P48729); settings: Compound concentration 1000.0 nM
Sequence of Casein kinase I isoform alpha (Homo sapiens) (P48729 2-337 limits assumed): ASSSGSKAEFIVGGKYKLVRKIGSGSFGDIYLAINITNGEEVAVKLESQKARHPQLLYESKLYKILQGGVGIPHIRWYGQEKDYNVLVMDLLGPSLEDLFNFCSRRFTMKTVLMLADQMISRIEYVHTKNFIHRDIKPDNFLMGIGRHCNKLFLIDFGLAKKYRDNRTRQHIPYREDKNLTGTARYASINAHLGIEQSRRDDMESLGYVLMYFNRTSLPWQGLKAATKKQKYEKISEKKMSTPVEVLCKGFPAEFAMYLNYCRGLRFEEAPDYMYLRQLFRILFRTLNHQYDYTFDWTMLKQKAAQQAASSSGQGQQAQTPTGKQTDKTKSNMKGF

[11] = molecular target: Casein kinase II subunit alpha' (Homo sapiens) (UniProt P19784); settings: Compound concentration 1000.0 nM
[12] = molecular target: Mitogen-activated protein kinase kinase kinase 12 (Homo sapiens) (UniProt Q12852); settings: Compound concentration 1000.0 nM
[13] = molecular target: Serine/threonine-protein kinase 17A (Homo sapiens) (UniProt Q9UEE5); settings: Compound concentration 1000.0 nM
Sequence of Serine/threonine-protein kinase 17A (Homo sapiens) (Q9UEE5 whole entry): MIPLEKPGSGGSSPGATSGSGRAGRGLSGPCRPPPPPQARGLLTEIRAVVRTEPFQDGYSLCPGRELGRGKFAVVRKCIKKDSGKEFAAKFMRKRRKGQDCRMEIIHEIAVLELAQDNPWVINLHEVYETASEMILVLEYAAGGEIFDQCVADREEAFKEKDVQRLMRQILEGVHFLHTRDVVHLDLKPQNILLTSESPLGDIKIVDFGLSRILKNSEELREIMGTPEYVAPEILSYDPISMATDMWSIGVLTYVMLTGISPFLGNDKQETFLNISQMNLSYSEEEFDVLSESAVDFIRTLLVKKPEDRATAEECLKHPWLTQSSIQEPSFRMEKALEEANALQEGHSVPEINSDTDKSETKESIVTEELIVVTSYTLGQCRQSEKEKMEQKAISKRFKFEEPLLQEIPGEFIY

[14] = test system: Receptor-type tyrosine-protein kinase FLT3 (Homo sapiens), P36888 [D835H]; settings: Compound concentration 1000.0 nM
[15] = test system: Receptor-type tyrosine-protein kinase FLT3 (Homo sapiens), P36888 [N841I]; settings: Compound concentration 1000.0 nM
[16] = molecular target: Tyrosine-protein kinase Fyn (Homo sapiens) (UniProt P06241); settings: Compound concentration 1000.0 nM
[17] = molecular target: Glycogen synthase kinase-3 beta (Homo sapiens) (UniProt P49841); settings: Compound concentration 1000.0 nM
[18] = molecular target: Homeodomain-interacting protein kinase 2 (Homo sapiens) (UniProt Q9H2X6); settings: Compound concentration 1000.0 nM
[19] = molecular target: Interleukin-1 receptor-associated kinase 4 (Homo sapiens) (UniProt Q9NWZ3); settings: Compound concentration 1000.0 nM
Sequence of Interleukin-1 receptor-associated kinase 4 (Homo sapiens) (Q9NWZ3 whole entry): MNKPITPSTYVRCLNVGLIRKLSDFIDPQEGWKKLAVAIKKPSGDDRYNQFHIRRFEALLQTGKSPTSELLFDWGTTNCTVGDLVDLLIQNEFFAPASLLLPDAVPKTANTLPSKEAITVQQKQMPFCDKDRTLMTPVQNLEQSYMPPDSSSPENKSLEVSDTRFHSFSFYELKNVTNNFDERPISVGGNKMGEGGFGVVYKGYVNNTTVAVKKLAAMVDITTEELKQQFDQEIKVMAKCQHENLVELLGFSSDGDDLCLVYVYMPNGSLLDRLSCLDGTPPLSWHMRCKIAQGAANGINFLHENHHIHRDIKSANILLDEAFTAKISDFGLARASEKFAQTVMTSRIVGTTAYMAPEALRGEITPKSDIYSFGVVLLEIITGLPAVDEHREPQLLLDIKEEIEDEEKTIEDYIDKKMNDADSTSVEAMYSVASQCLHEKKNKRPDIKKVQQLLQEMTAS

[20] = molecular target: Tyrosine-protein kinase JAK2 (Homo sapiens) (UniProt O60674); settings: Compound concentration 1000.0 nM
[21] = molecular target: Mitogen-activated protein kinase 8 (Homo sapiens) (UniProt P45983); settings: Compound concentration 1000.0 nM
[22] = molecular target: Mast/stem cell growth factor receptor Kit (Homo sapiens) (UniProt P10721); settings: Compound concentration 1000.0 nM
[23] = test system: Mast/stem cell growth factor receptor Kit (Homo sapiens), P10721 [V559D,V654A]; settings: Compound concentration 1000.0 nM
[24] = molecular target: Mitogen-activated protein kinase kinase kinase 3 (Homo sapiens) (UniProt Q99759); settings: Compound concentration 1000.0 nM
[25] = molecular target: MAP/microtubule affinity-regulating kinase 3 (Homo sapiens) (UniProt P27448); settings: Compound concentration 1000.0 nM
[26] = molecular target: Hepatocyte growth factor receptor (Homo sapiens) (UniProt P08581); settings: Compound concentration 1000.0 nM
[27] = molecular target: Dual specificity mitogen-activated protein kinase kinase 7 (Homo sapiens) (UniProt O14733); settings: Compound concentration 1000.0 nM
Sequence of Dual specificity mitogen-activated protein kinase kinase 7 (Homo sapiens) (O14733 whole entry): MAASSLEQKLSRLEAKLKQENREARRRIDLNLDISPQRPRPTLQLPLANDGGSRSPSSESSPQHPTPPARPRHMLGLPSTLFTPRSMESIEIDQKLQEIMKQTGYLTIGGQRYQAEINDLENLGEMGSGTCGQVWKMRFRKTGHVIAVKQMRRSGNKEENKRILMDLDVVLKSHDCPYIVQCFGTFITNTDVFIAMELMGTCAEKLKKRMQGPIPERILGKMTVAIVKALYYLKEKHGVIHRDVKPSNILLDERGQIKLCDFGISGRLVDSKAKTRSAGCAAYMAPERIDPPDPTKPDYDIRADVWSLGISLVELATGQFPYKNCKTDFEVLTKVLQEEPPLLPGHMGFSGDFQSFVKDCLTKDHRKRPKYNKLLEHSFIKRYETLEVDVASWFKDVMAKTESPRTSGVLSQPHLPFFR

[28] = molecular target: Serine/threonine-protein kinase mTOR (Homo sapiens) (UniProt P42345); settings: Compound concentration 1000.0 nM
[29] = molecular target: Serine/threonine-protein kinase Nek4 (Homo sapiens) (UniProt P51957); settings: Compound concentration 1000.0 nM
[30] = molecular target: Serine/threonine-protein kinase PAK 3 (Homo sapiens) (UniProt O75914); settings: Compound concentration 1000.0 nM
[31] = test system: Phosphatidylinositol 4,5-bisphosphate 3-kinase catalytic subunit alpha isoform (Homo sapiens), P42336 [M1043I]; settings: Compound concentration 1000.0 nM
[32] = molecular target: Serine/threonine-protein kinase pim-2 (Homo sapiens) (UniProt Q9P1W9); settings: Compound concentration 1000.0 nM
[33] = molecular target: cAMP-dependent protein kinase catalytic subunit alpha (Homo sapiens) (UniProt P17612); settings: Compound concentration 1000.0 nM
[34] = molecular target: Protein kinase C iota type (Homo sapiens) (UniProt P41743); settings: Compound concentration 1000.0 nM
[35] = molecular target: Serine/threonine-protein kinase D2 (Homo sapiens) (UniProt Q9BZL6); settings: Compound concentration 1000.0 nM
[36] = molecular target: Serine/threonine-protein kinase PRP4 homolog (Homo sapiens) (UniProt Q13523); settings: Compound concentration 1000.0 nM
[37] = molecular target: Receptor-interacting serine/threonine-protein kinase 2 (Homo sapiens) (UniProt O43353); settings: Compound concentration 1000.0 nM
[38] = molecular target: Proto-oncogene tyrosine-protein kinase ROS (Homo sapiens) (UniProt P08922); settings: Compound concentration 1000.0 nM
[39] = molecular target: Ribosomal protein S6 kinase alpha-4 (Homo sapiens) (UniProt O75676); settings: Compound concentration 1000.0 nM
[40] = molecular target: SRSF protein kinase 3 (Homo sapiens) (UniProt Q9UPE1); settings: Compound concentration 1000.0 nM
[41] = molecular target: Testis-specific serine/threonine-protein kinase 1 (Homo sapiens) (UniProt Q9BXA7); settings: Compound concentration 1000.0 nM
[42] = molecular target: Vascular endothelial growth factor receptor 2 (Homo sapiens) (UniProt P35968); settings: Compound concentration 1000.0 nM
[43] = molecular target: Serine/threonine-protein kinase VRK2 (Homo sapiens) (UniProt Q86Y07); settings: Compound concentration 1000.0 nM
[44] = molecular target: Serine/threonine-protein kinase WNK2 (Homo sapiens) (UniProt Q9Y3S1); settings: Compound concentration 1000.0 nM
Sequence of Serine/threonine-protein kinase WNK2 (Homo sapiens) (Q9Y3S1 whole entry): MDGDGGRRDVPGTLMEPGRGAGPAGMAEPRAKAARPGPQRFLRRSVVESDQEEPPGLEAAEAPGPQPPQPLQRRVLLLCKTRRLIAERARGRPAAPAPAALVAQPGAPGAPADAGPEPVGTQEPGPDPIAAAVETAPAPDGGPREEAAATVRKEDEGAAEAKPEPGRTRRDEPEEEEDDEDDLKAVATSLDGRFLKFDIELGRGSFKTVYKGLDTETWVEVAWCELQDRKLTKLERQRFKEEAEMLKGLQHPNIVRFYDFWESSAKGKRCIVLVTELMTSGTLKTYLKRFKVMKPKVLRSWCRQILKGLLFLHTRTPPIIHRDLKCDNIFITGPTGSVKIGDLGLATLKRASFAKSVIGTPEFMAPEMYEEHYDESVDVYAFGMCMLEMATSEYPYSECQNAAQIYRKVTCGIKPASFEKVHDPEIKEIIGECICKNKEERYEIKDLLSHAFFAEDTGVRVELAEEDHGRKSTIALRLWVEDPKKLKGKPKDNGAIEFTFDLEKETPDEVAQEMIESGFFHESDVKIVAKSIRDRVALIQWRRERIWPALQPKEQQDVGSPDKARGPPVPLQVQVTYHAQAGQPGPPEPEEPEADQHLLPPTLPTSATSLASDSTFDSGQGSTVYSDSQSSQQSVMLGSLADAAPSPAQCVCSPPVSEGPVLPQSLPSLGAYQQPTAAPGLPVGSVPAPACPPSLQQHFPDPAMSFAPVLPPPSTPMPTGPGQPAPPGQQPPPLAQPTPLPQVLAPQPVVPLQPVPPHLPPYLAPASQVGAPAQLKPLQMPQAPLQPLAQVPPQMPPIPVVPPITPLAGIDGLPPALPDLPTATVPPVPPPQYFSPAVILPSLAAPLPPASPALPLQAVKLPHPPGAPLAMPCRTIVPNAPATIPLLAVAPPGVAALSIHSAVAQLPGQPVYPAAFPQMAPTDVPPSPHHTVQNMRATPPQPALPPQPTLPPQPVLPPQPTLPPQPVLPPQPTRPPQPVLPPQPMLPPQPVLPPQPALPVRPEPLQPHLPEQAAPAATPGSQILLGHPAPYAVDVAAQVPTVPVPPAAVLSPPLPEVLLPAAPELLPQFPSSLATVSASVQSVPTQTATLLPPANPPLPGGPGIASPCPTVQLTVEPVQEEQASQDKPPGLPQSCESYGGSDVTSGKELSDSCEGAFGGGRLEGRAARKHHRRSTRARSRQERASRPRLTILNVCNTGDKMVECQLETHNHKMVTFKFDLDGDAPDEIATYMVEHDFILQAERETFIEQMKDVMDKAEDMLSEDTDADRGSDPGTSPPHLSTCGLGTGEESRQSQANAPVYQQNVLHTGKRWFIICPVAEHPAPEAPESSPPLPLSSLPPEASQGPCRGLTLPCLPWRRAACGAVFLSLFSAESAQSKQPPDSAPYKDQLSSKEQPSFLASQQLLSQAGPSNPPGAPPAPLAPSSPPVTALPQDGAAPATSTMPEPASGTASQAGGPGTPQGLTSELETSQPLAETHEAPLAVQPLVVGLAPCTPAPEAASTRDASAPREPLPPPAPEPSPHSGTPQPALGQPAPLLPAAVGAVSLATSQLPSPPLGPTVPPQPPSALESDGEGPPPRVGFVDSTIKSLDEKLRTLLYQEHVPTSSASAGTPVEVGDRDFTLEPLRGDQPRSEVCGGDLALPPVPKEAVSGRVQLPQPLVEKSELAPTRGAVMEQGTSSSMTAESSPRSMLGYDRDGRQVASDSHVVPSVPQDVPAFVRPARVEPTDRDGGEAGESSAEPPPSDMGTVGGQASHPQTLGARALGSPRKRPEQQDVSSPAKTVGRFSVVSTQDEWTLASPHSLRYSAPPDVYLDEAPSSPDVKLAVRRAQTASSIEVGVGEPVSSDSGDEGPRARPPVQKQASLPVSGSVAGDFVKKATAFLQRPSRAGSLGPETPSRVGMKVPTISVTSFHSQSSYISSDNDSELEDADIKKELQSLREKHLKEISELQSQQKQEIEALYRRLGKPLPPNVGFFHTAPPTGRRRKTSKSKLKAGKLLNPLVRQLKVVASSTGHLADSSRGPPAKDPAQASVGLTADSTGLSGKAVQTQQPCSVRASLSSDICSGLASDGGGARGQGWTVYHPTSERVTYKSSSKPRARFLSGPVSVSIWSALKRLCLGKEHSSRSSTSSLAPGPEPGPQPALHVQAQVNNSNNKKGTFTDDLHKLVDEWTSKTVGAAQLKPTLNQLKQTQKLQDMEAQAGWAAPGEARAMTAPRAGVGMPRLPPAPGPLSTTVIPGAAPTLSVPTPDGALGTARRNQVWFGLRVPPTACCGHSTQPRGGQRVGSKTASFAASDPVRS

[45] = molecular target: Histamine H4 receptor (Homo sapiens) (UniProt Q9H3N8); settings: Compound concentration 10.0 uM

Sequence of Aurora kinase B (Homo sapiens) (Q96GD4 whole entry): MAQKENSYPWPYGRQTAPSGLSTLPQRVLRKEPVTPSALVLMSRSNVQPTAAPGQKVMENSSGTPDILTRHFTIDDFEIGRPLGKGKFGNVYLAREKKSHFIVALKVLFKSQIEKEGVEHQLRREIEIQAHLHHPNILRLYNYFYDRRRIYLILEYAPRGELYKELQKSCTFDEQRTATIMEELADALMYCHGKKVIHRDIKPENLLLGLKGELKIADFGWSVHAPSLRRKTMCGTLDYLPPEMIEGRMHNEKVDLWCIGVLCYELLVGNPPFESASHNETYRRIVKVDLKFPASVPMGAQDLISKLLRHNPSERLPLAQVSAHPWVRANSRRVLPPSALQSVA

COc1ccc2c(O[C@@H]3C[C@H]4C(=O)N[C@]5(C(=O)O)CC5/C=C\CCCCC[C@H](NC(=O)OC5CCCC5)C(=O)N4C3)cc(-c3csc(NC(=O)C(C)C)n3)nc2c1C (stereo not given in full) [BI 1230]
inactive: residual activity [1] 91% | residual activity [2] 92% | residual activity [3] 91% | residual activity [4] 77% | residual activity [5] 98% | residual activity [6] 100% | residual activity [7] 88% | residual activity [8] 100% | residual activity [9] 100% | residual activity [10] 68% | residual activity [11] 100% | residual activity [12] 92% | residual activity [13] 99% | residual activity [14] 73% | residual activity [15] 89% | residual activity [16] 100% | residual activity [17] 100% | residual activity [18] 68% | residual activity [19] 71% | residual activity [20] 64% | residual activity [21] 81% | residual activity [22] 100% | residual activity [23] 74% | residual activity [24] 79% | residual activity [25] 95% | residual activity [26] 99% | residual activity [27] 81% | residual activity [28] 100% | residual activity [29] 93% | residual activity [30] 100% | residual activity [31] 88% | residual activity [32] 100% | residual activity [33] 97% | residual activity [34] 96% | residual activity [35] 95% | residual activity [36] 93% | residual activity [37] 100% | residual activity [38] 100% | residual activity [39] 72% | residual activity [40] 57% | residual activity [41] 70% | residual activity [42] 83% | residual activity [43] 79% | residual activity [44] 87% | inhibition [45] 43.5%

O=C(N[C@H]1CCCCC/C=C\C2C[C@@]2(C(=O)O)NC(=O)[C@@H]2C[C@@H](Oc3ccncc3)CN2C1=O)OC1CCCC1 (stereo not given in full) [BI 1675]
inactive: residual activity [1] 71% | residual activity [2] 99% | residual activity [3] 89% | residual activity [4] 93% | residual activity [5] 76% | residual activity [6] 99% | residual activity [7] 89% | residual activity [8] 79% | residual activity [9] 93% | residual activity [10] 80% | residual activity [11] 100% | residual activity [12] 100% | residual activity [13] 100% | residual activity [14] 56% | residual activity [15] 100% | residual activity [16] 100% | residual activity [17] 89% | residual activity [18] 100% | residual activity [19] 88% | residual activity [20] 100% | residual activity [21] 86% | residual activity [22] 91% | residual activity [23] 63% | residual activity [24] 89% | residual activity [25] 100% | residual activity [26] 60% | residual activity [27] 91% | residual activity [28] 100% | residual activity [29] 79% | residual activity [30] 88% | residual activity [31] 84% | residual activity [32] 100% | residual activity [33] 92% | residual activity [34] 100% | residual activity [35] 100% | residual activity [36] 92% | residual activity [37] 100% | residual activity [38] 92% | residual activity [39] 85% | residual activity [40] 89% | residual activity [41] 77% | residual activity [42] 100% | residual activity [43] 100% | residual activity [44] 100% | inhibition [45] -8.87%
